Source: patent US20070224194A1, “Methods for Inhibiting Angiogenesis and/or Lymphangiogenesis” (LUDWIG INSTITUTE FOR CANCER RESEARCH, priority 2004, published 2007)
The star is where a group is joined. Decanoyl = CCCCCCCCCC(=O)*; CH2Cl = ClC*

Legend:
[1] = test system: BaF3 cells expressing the VEGFR-2/EpoR chimeric receptor; assay: BaF3 bioassay, VEGFR-2/EpoR chimeric receptor, [3H]thymidine incorporation; type: cell-based; settings: paper example in present tense
Text: In order to test if a furin or broad-range PC inhibitor can block the biological effects of VEGF-D, mammalian cells are employed that proteolytically process VEGF-D, such as 293EBNA or Capan-1 pancreatic carcinoma cells. Derivatives of these cells harboring an expression construct for full-length VEGF-D are transfected with the shRNA construct for furin (as described here) or treated with a broad-range PC inhibitor such as decanoyl-Arg-Val-Lys-Arg-chloromethylketone (see, PCT WO 2005/112971 A1, the disclosure of which is incorporated herein by reference in its entirety). The inhibition of VEGF-D processing by these agents is confirmed by immunoprecipitation/Western blotting of the conditioned cell culture media using antibody that binds the VHD of VEGF-D. The conditioned cell culture media from cells treated with the inhibitors (and from cells in which these agents are omitted, i.e. “mock” treatments) are used for incubations with BaF3 pre-B cells expressing chimeric receptors consisting of the extracellular domains of VEGFR-2 or VEGFR-3 and the transmembrane and cytoplasmic domains of the erythropoietin receptor (EpoR) (Stacker et al., J. Biol. Chem., 274:34884-34892, 1999; Achen et al., Eur. J. Biochem., 267:2505-2515, 2000). […] The proliferation of the cells in response to the conditioned media containing VEGF-D is monitored by incorporation of [3H]thymidine into DNA. […]

[2] = test system: proteolytic processing of VEGF-C; assay: Processing of VEGF-C secreted by 293EBNA cells expressing VEGF-C-FULL-N-Myc (immunoprecipitation/Western blot); type: cell-based, human; settings: 0, 1, 10, 50 or 100 μM, 18 hours, Western blot
Protocol: 293EBNA cells stably transfected with an expression construct encoding VEGF-C-FULL-N-Myc (full-length VEGF-C tagged with Myc at the N-terminus) or VEGF-D-FULL-N-FLAG (full-length VEGF-D tagged with FLAG at the N-terminus) secrete fully and partially processed forms of VEGF-C or VEGF-D into the culture medium (Joukov et al., EMBO J. 16:3898-3911 1997; Stacker et al., J. Biol. Chem. 274: 32127-32136, 1999). These cells were grown overnight in 24-well plates, seeded with 8×10^4 cells per well. At the time when cultures were initiated in these plates, growth medium was supplemented with Dec-RVKR-CMK (Calbiochem) (dissolved in methanol) to a final concentration of 0, 1, 10, 50 or 100 μM. Solvent control cultures were also established, in which the medium was supplemented with methanol at concentrations equal to those present in the cultures treated with inhibitor. […]
VEGF-C species were immunoprecipitated from conditioned medium by addition of anti-VEGF-C antibody that binds the VHD and C-terminal propeptide (R&D Systems). […] The precipitated VEGF-C and VEGF-D species were then analysed by Western blot using biotinylated antibodies against the VHD and C terminus of VEGF-C, or the VHD of VEGF-D (R&D Systems) and streptavidin-horse radish peroxidase conjugate (Zymed) (FIGS. 1 and 2). […]

[3] = test system: VEGF-D propeptide processing; assay: VEGF-D processing by Balbc/3T3 cells that naturally produce VEGF-D; type: cell-based; settings: 100 μM
Text: Finally, the effect of dec-RVKR-CMK on VEGF-D processing by Balbc/3T3 cells that naturally produce this growth factor (i.e., in cells that had not been transfected so as to express VEGF-D) was examined.

[4] = biological target: Furin (Homo sapiens, UniProt P09958); settings: cited from earlier work
[5] = test system: proteolytic processing of VEGF-D; assay: Processing of VEGF-D secreted by 293EBNA cells expressing VEGF-D-FULL-N-FLAG (immunoprecipitation/Western blot); type: cell-based, human; settings: for proteolytic processing of full-length VEGF-D: 100 μM
Protocol: 293EBNA cells stably transfected with an expression construct encoding VEGF-C-FULL-N-Myc (full-length VEGF-C tagged with Myc at the N-terminus) or VEGF-D-FULL-N-FLAG (full-length VEGF-D tagged with FLAG at the N-terminus) secrete fully and partially processed forms of VEGF-C or VEGF-D into the culture medium (Joukov et al., EMBO J. 16:3898-3911 1997; Stacker et al., J. Biol. Chem. 274: 32127-32136, 1999). These cells were grown overnight in 24-well plates, seeded with 8×10^4 cells per well. At the time when cultures were initiated in these plates, growth medium was supplemented with Dec-RVKR-CMK (Calbiochem) (dissolved in methanol) to a final concentration of 0, 1, 10, 50 or 100 μM. Solvent control cultures were also established, in which the medium was supplemented with methanol at concentrations equal to those present in the cultures treated with inhibitor. After 18 hours of growth (at 37° C., 10% CO2 in a humidified environment), conditioned cell culture medium was removed from the cells and cleared by centrifugation (5 minutes, 250×g, 4° C.).
VEGF-C species were immunoprecipitated from conditioned medium by addition of anti-VEGF-C antibody that binds the VHD and C-terminal propeptide (R&D Systems). VEGF-D species were immunoprecipitated by addition of A2 antiserum that binds within the VHD of VEGF-D (Stacker et al., J. Biol. Chem. 274: 32127-32136, 1999). Immune complexes were allowed to form for 2 hours at 4° C. with gentle agitation and precipitated by addition of 10 μl of protein A sepharose beads and incubation for 2 hours at 4° C. with gentle agitation. Protein A sepharose complexes were recovered by centrifugation (5 minutes, 250×g, 4° C.) and washed twice with ice cold 50 mM Tris, 150 mM NaCl, pH 8.0. The precipitated VEGF-C and VEGF-D species were then analysed by Western blot using biotinylated antibodies against the VHD and C terminus of VEGF-C, or the VHD of VEGF-D (R&D Systems) and streptavidin-horse radish peroxidase conjugate (Zymed) (FIGS. 1 and 2). […]
The 293EBNA cell lines expressing VEGF-D-FULL-FLAG, VEGF-DΔC or VEGF-DΔN were seeded into 24-well plates (8×10^4 cells/well), in medium supplemented with Dec-RVKR-CMK dissolved in methanol, to a final concentration of 0, 1, 10, 50 or 100 μM. […] The precipitated VEGF-D species were then analysed by reducing SDS-PAGE and Western blotting using a biotinylated antibody against the VHD of human VEGF-D (R&D Systems), and Streptavidin-horse radish peroxidase conjugate (Zymed).

Sequence of Furin (P09958 108-794, species assumed): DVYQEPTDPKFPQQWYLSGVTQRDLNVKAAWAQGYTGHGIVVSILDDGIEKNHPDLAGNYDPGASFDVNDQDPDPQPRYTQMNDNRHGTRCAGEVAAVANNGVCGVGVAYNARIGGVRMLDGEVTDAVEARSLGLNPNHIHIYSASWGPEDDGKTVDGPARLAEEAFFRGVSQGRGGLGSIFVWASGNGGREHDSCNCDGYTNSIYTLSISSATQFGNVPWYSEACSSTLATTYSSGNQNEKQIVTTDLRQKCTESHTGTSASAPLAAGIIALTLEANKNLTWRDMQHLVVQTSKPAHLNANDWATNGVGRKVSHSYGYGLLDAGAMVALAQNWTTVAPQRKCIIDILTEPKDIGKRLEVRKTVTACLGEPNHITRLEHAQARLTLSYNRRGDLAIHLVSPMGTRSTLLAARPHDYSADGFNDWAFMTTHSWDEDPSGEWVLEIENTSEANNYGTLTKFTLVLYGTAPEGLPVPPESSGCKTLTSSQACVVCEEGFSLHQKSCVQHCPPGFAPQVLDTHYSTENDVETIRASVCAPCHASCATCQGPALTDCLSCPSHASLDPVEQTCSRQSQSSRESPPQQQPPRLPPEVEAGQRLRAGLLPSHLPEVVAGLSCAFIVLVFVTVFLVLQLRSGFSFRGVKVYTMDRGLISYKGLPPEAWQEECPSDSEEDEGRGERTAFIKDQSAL

Decanoyl-Arg-Val-Lys-Arg-chloromethylketone (Decanoyl-RVKR-CH2Cl) [Dec-RVKR-CMK]
proliferation of BaF3 VEGFR-2/EpoR cells induced by conditioned media of treated VEGF-D-expressing cells [1]: do not induce significant proliferation
abundance of fully and partially processed forms of VEGF-C [2]: dramatically reduced in abundance in a dose-dependent manner
VEGF-D propeptide processing [3]: almost completely blocked
inhibition of furin [4]: potently inhibited
abundance of fully and partially processed forms of VEGF-D ([5]; 0, 1, 10, 50 or 100 μM, 18 hours, Western blot): dramatically reduced in abundance in a dose-dependent manner
proteolytic processing of full-length VEGF-D ([5]; 18 hours): totally blocked
proteolytic processing of full-length VEGF-D ([5]; 18 hours, listed as dec-RVKR-CMK): complete inhibition
proteolysis of VEGF-D-FULL-N-FLAG ([5]; concentrations lower than 100 μM): incompletely inhibited
